Entries after “also recorded” stand apart in the source; their conditions may differ.
Tests used:
mice = experiment: Effect of inhibitor pretreatment on LPA-, LPC- or miR-146a-induced scratching behavior; type: in vivo, mouse; conditions: i.t. 200 ng/5 μL, about 2 weeks before
Method: Behavioral assessment. Mice were shaved at the dorsal neck 1 d before experiments. […] After injections, mice were immediately placed back to the chamber, and the scratching behavior was recorded by a Panasonic video camera for 30 min. Hind limb scratching behavior directed toward the injected area at the nape of neck was observed. One scratch is defined as a lifting of the hind limb toward the injection site and then a replacing of the limb back to the floor, regardless of how many scratching strokes take place between those two movements. Behavioral analysis was conducted by observers blinded to genotype.
Control animals received the same volume of vehicles.
Lumbar puncture was made with a 30G-needle and drugs at 5 μL of volume were delivered. Scratching behavior assay was started approximately 2 weeks after resiniferatoxin treatment.

[1] = tested on: TRPV1+ central nerve terminals; experiment: Ablation of TRPV1+ central nerve terminals in spinal cord (TRPV1 immunolabeling); type: in vivo, mouse; conditions: i.t. 200 ng/5 μL
Method: To examine whether TRPV1-expressing sensory neurons contribute to LPC- or miR-146α-induced itch, we ablated the central terminals of TRPV1-expressing neurons by i.t. injection of 200 ng resiniferatoxin (RTX) into the L4/L5 subarachnoid space (Mishra et al. Mol. Cell. Neurosci. 2010, 43, 157-163). Lumbar puncture was made with a 30G-needle and drugs at 5 μL of volume were delivered. Scratching behavior assay was started approximately 2 weeks after resiniferatoxin treatment.
Immunohistochemistry and morphometry analysis. Routine procedures were followed (Chen et al. Pain 2014, 155, 2662-2672). Briefly, mice were perfused transcardially with 0.01 M PBS followed by ice-cold 4% paraformaldehyde (PFA, Sigma, St. Louis, MO). Cervical spinal cord, TGs and cervical DRGs, and dorsal neck skin were dissected and post-fixed in 4% PFA overnight, cryoprotected in 20% sucrose (48 h) and sectioned on a cryostat (30 μm for spinal cord, 12 μm for TG and DRG and neck skin). […] 4-6 sections were analyzed per mouse. […] The cutoff density threshold was determined by averaging the density of three neurons per section that were judged to be minimally positive, using ImageJ software. […] Positive cells were expressed as % of total counted TG neurons. The labeling density of TRPV1 in spinal cord was measured using the integrated density algorithm of Image J.

[2] = tested on: human TRPV4 mutations (R746C, R746G, R746D, K754G, R757G, R774G, and W776G); experiment: Ca2+ imaging in HEK cells transfected with human TRPV4 mutations; type: cell-based; conditions: except a reduction with mutation W776G
Method: Cell culture and transfection. HEK293 cells (ATCC® CRL-1573) were cultured on poly-D-lysine coated coverslips in 24-well plate containing DMEM media with high-Glucose (Gibco, Gaithersburg, MD) supplemented with 10% fetal bovine serum (FBS, HyClone Laboratories, Logan, UT) and 100 U/mL of penicillin/streptomycin (Gibco, Gaithersburg, MD). Cell cultures were maintained with 5% of CO2 in a humidified incubator at 37° C. HEK cells were transfected with rat or human wild type or mutant TRPV4 channels with EGFP or YFP coupled to their C-termini (1.5 μg of plasmid for excised patch clamp and Ca^2+ imaging and 200 ng for single-channel experiments). The jetPEI™ Polyplus transfection reagent (Polyplus Transfection, New York, NY) for electrophysiology or Lipofectamine™ 2000 Reagent (Invitrogen, Waltham, MA) for Ca^2+ imaging were used for transfections per manufacturer's instructions as previously described (Chen et al. Pain 2014, 155, 2662-2672; Morales-Lazaro et al. Nat. Commun. 2016, 7, 13092). […]
(§1) In vitro and ex vivo Ca^2+ imaging. […] Ratios of emissions were acquired at 0.5 Hz. ΔR/R0 was determined as the fraction of the increase of a given ratio over baseline ratio divided by baseline ratio. […]

[3] = tested on: rat TRPV4 mutations (R746C, R746G, R746D, K754G, R757G, R774G, and W776G); experiment: Ca2+ imaging in HEK cells transfected with rat TRPV4 mutations; type: cell-based; conditions: except a reduction with mutation W776G
Method: (§2) Cell culture and transfection. HEK293 cells (ATCC® CRL-1573) were cultured on poly-D-lysine coated coverslips in 24-well plate containing DMEM media with high-Glucose (Gibco, Gaithersburg, MD) supplemented with 10% fetal bovine serum (FBS, HyClone Laboratories, Logan, UT) and 100 U/mL of penicillin/streptomycin (Gibco, Gaithersburg, MD). Cell cultures were maintained with 5% of CO2 in a humidified incubator at 37° C. HEK cells were transfected with rat or human wild type or mutant TRPV4 channels with EGFP or YFP coupled to their C-termini (1.5 μg of plasmid for excised patch clamp and Ca^2+ imaging and 200 ng for single-channel experiments). The jetPEI™ Polyplus transfection reagent (Polyplus Transfection, New York, NY) for electrophysiology or Lipofectamine™ 2000 Reagent (Invitrogen, Waltham, MA) for Ca^2+ imaging were used for transfections per manufacturer's instructions as previously described (Chen et al. Pain 2014, 155, 2662-2672; Morales-Lazaro et al. Nat. Commun. 2016, 7, 13092). To investigate whether miR-146a can directly activate TRPV1 channels or indirectly via TLRs, HEK293 cells were transfected with rTRPV1 or co-transfected rTRPV1 with rTLR7, rTLR2, or rTLR6 (Addgene, Watertown, MA) for Ca^2+ imaging assay. Control cells were transfected with GFP or YFP.
Site-directed mutagenesis of TRPV4 channels. TRPV4 sequences of multiple species were aligned using Clustal Omega program. Site-directed mutagenesis to generate point mutations in rat and human TRPV4 channels were carried out using Phusion DNA polymerase enzyme (Salazar et al. Nat. Struct. Mol. Biol. 2009, 16, 704-710; Rosenbaum et al. Neuron 2002, 33, 703-713; Hsieh et al. Methods Mol. Biol. 2013, 978, 173-186), with final sequencing to check for presence of the induced mutation. We introduced the following mutations into the rTRPV4 or hTRPV4 channel: R746C, R746G, R746D, K754G, R757G, R774G, and W776G.
as §1

hTRPV4 = target: T1, hTRPV4 (Homo sapiens, UniProt Q9HBA0); experiment: Single-channel recordings of hTRPV4 in HEK293 cells; type: biochemical; conditions: +60 mV; 100 nM GSK101 or 5 μM LPC 18:1
T1 construct: expressed in transfected cells; host or cells: HEK293 (ATCC CRL-1573)
Method: as §2
For single-channel recordings, Borosilicate glass […]) pipettes were used. Recordings were obtained at +60 mV by acquiring several traces of 1-3 s duration. The effect of GSK1016790A or LPC 18:1 on single TRPV4 channels was studied in inside-out. Currents were filtered at 2 kHz and sampled at 5 kHz. […] Single-channel openings and closures were identified with the half-threshold crossing technique (Morales-Lazaro et al. Nat. Commun. 2016, 7, 13092). The channel open probability was calculated as the sum of the total open time divided by the sweep duration. Dwell times and amplitude histograms in the closed or open states were collected in logarithmic time histograms according to the Sine-Sigworth transformation (Sigworth et al. Biophys. J. 1987, 52, 1047-1054). Sums of three or two exponential components were fitted to histograms using a least-squares algorithm.

[4] = cited from earlier work

T1 sequence (Q9HBA0 whole entry): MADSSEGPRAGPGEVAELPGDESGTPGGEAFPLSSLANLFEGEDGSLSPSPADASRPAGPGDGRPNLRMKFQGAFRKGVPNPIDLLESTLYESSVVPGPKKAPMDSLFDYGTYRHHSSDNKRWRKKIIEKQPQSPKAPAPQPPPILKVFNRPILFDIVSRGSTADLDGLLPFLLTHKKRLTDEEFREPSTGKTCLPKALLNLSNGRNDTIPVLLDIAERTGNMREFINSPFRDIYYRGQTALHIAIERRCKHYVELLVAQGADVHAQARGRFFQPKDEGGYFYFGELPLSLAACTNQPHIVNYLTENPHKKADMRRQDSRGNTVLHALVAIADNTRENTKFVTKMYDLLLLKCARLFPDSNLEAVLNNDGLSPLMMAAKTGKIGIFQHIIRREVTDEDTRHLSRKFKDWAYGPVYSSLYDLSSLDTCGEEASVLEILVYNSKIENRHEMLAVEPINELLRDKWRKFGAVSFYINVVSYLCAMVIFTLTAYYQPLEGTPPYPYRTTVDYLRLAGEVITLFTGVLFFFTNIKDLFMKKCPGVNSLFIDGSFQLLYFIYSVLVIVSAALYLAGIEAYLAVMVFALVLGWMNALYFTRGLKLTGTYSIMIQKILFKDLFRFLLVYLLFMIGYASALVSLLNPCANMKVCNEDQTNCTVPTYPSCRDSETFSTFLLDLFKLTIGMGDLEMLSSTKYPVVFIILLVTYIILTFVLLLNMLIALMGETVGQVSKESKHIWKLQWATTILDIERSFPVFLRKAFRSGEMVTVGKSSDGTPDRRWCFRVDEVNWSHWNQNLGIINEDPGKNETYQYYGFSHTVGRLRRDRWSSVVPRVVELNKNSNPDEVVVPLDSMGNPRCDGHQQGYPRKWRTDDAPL

With C=C(C)[C@]12C[C@@H](C)[C@@]34O[C@](Cc5ccccc5)(O[C@@H]1[C@@H]3C=C(COC(=O)Cc1ccc(O)c(OC)c1)C[C@]1(O)C(=O)C(C)=C[C@@H]41)O2 [resiniferatoxin] the “effect on LPC-induced itch after ablation of TRPV1-expressing terminals” value (mice) was “significantly reduced”, the “effect on miR-146a-induced itch after ablation of TRPV1-expressing terminals” value (mice) was “significant reduction; also recorded: significantly reduced” and the “TRPV1+ central nerve terminals in superficial layers of the spinal cord” value [1] was “Selective ablation; also recorded: Elimination”.
With CC(C)C[C@H](NC(=O)c1cc2ccccc2s1)C(=O)N1CCN(C(=O)[C@H](CO)NS(=O)(=O)c2ccc(Cl)cc2Cl)CC1 [GSK101] the “10 nM GSK101-induced Ca2+ signal in TRPV4 mutants vs hTRPV4” value [2] was “not significantly disrupted”, the “10 nM GSK101-induced Ca2+ signal in TRPV4 mutants vs rTRPV4” value [3] was “remained largely active; also recorded: not significantly disrupted” and the “open level (single-channel) amplitude” value (hTRPV4) was 6.45±0.55 pA. The “open probability (Po)” value (hTRPV4) was 0.85±0.08, the “single channel conductance (gi)” value (hTRPV4) was 107 pS and the lethality in-vivo [4] was “lethal”.

Reference: patent US20240002846A1, “COMPOSITIONS AND METHODS FOR THE DIAGNOSIS AND TREATMENT OF ITCH” (Duke University, priority 2020, published 2024)
